Test results reported in patent US20180073018A1, “COMPOSITIONS AND METHODS FOR SPECIFIC REACTIVATION OF HIV LATENT RESERVOIR” (priority 2015, published 2018).

Assays:
HIV-1 LTR promoter [1] = assay: dCas9-VPH/msgRNA (or SAHA) reactivation of latent LTR-eLuc reporter in TZM-bI cells; type: cell-based
Procedure: Cells were plated in 96-well plate and the indicated MS2-gRNAs were cotransfected by Lipofectamine 3000 (FIG. 3A) or coinfected by lentiviruses (FIG. 3B, MOI=50) with pMSCV-LTR-dCas9-VP64-BFP plus pLV-MS2-p65-HSF1-GFP. Two days later, OneGlo luminescence assay was performed. The SIV MS2-gRNA-D was used as negative control. […] The gRNA-J has no effect due to 2 nucleotides mismatch to the LTR sequence from TZM-bI cells.
FIG. 8A, FIG. 8B, FIG. 8C, and FIG. 8D, depict the results of experiments of screening of MS2-mediated sgRNAs (msgRNAs) targeting the HIV-1 long terminal repeat (LTR) in the dCas9-synergistic activation mediator (SAM) system. FIG. 8A is a schematic illustration of SAM-VPH complex derived from dCas9-VP64 (V) and MS2-p65-HSF1 (PH) with msgRNAs. FIG. 8B is a graph showing similar activation of transfected EcoHIV-eLuc reporter by inducible (TRE) or constitutive (LTR) dCas9-VP64 expression in HEK293T cells. FIG. 8C is a graph showing similar reactivation of latent HIV-LTR-eLuc reporter in TZM-bI cells after either transient plasmid transfection by Lipofectamine 3000 or stable infection by lentivirus. […] The gRNA-J has no effect due to 2 nucleotides mismatch to the LTR sequence from TZM-bI cells. […]
FIG. 9A and FIG. 9B: TZM-bI cells were infected with dCas9-VPH and indicated msgRNA lentiviruses at 1 or 10 MOI and luciferase activity was measured at 2-21 days post-infection (dpi). […]
(§1) FIG. 12A, FIG. 12B, FIG. 12C: The dCas9-VPH stable TZM-bI cells were treated with SAHA or infected with indicated msgRNAs lentivirus for 2-4 d before luminescence reporter assay (FIG. 12A) and CELLTITER-GLO® luminescent cell viability assay (FIG. 12B). […]
Experiments were conducted to compare reactivation of HIV-LTR luciferase reporter in TZM-BI cells induced by gRNA/dCas9-VP64/MS2-p65-HSF1/delivered by either transient plasmid transfection (FIG. 3A) or stable lentivirus infection (FIG. 3B). […] Two days later, OneGlo luminescence assay was performed. […]

HIV-1 LTR promoter [2] = assay: HIV-1 EGFP reporter reactivation in latent CHME5 microglial cells; type: cell-based; details: dCas9-VPH stable CHME5, 500 nM, 4 d
Excerpt: Cells were infected with pMSCV-LTR-dCas9-VP64-puromycin and Lenti-MS2-p65-HSF1-hygromysin, selected for 10 days. The population cells were infected with Lenti-MS2-gRNAs-Zeosin and the fluorescent micrographs were taken at 1 day after infection (FIG. 5B). Cells were continuously cultured for 7 days, and selected with triple antibiotics (puromycin-hygromycin-Zeocin) for 3 days before flow cytometry (FIG. 5C).
FIG. 9A and FIG. 9B: TZM-bI cells were infected with dCas9-VPH and indicated msgRNA lentiviruses at 1 or 10 MOI and luciferase activity was measured at 2-21 days post-infection (dpi). FIG. 9C, FIG. 9D: indicated HIV-1 EGFP reporter T cell lines were infected with dCas9-VPH and indicated msgRNAs lentiviruses at 10 MOI and flow cytometric analysis for EGFP percentage (FIG. 9C) and individual intensity (FIG. 9D) was performed at 1 dpi. […]
as §1
Cells were trypsinized (for CHME5) or collected (for suspension T cell lines), washed with PBS and fixed in 2% paraformaldehyde for 10 minutes at room temperature. Then, cells were washed twice with PBS and analyzed using a Guava EasyCyte Mini flow cytometer (Guava Technologies). […]

SMILES: O=C(CCCCCCC(=O)Nc1ccccc1)NO [SAHA, suberoylanilide hydroxamic acid]
- activation of LTR-eLuc reporter (HIV-1 LTR promoter [1]; TZM-bI, 500 nM): did not activate
- reactivation of LTR-eLuc reporter (HIV-1 LTR promoter [1]; TZM-bI, 5,000 nM): 4 fold
- HIV-1 provirus reactivation (EGFP) (HIV-1 LTR promoter [2]): marginal increase
